Data published in publication PMC8152814, “The modulatory role of sulfated and non-sulfated small molecule heparan sulfate-glycomimetics in endothelial dysfunction: absolute structural clarification, molecular docking and simulated dynamics, SAR analyses and ADMET studies” (RSC Medicinal Chemistry, 2021).

Assays:
NADPH oxidase = NADPH oxidase activity (lucigenin chemiluminescence) in cell homogenates; format: cell-based, human; parameters: concentration or dose not given beside the values; details: averaged % of increase (+) or decrease (−) compared to control (FFA induced oxidatively stressed endothelial cells), n = 3
Text: The assays focused on the production of nitric oxide (NO) and the upregulation of nitric oxide synthase (eNOS), the production of reactive oxygen species (ROS) and the activity of nicotinamide adenine dinucleotide phosphate (NADPH) oxidase (Table 2). From the hypothesised model of heparan sulfate-glycomimetic activity,[17] the glycomimetics are proposed to attenuate the binding of HGF to the cMET receptor. This disruption to MET-receptor activation is proposed to modulate intracellular phosphorylation leading to an upregulation of eNOS and increased output of extracellular NO. […] Overall, the cross examination of NO output and reduction of ROS was used to determine the therapeutic action of the triaged glycomimetics α-4, R-10, S-10 and β-5, as well as 3 non-sulfated intermediates α-2, α-3 and β-3, on free fatty acid (FFA) induced, oxidatively stressed endothelial cell cultures (Table 2).
Biological assay and AMDET experimental details […]
Preparation of FFA-albumin complexes and cell treatments
To generate the in vitro model of oxidative stress, sodium palmitate was bound to bovine serum albumin (BSA) as outlined by Chavez and Summers,S2 with modifications. Sodium palmitate (FFA) was dissolved in EtOH at 60 °C and diluted 1:100 in M199 media supplemented with 2% fatty acid-free bovine serum albumin (BSA) and incubated for 1 h at 37 °C. HepG2 cells were treated with 1 μmol/L of the synthesized HS-glycomimetics in the presence of palmitate (100 μmol/L) for 3 h or pre-treated with glycomimetics for 12 h followed by 3 h palmitate (100 μmol/L). Control cells were incubated in serum free M199 containing 2% (wt/vol) fatty acid-free BSA. […]
H2DCFDA, Sigma) for 30 min at 37 °C, and the level of fluorescence was determined (excitation 490 nm; emission 540 nm) using a microplate reader (BioTek).
The level of NADPH-enhanced superoxide anions (O2•−) in HepG2 homogenates was determined by lucigenin-enhanced chemiluminescence.S4 Following the various treatment conditions, cells were homogenized in a buffer (20 mmol/L H2KPO4 and 1 mmol/L EDTA supplemented with aprotinin, leuprotinin, pepstatin and PMSF). The total protein quantified using the Bicinchoninic acid (BCA) assay (Pierce Biotechnology). To 50 μg of total protein, NADPH (100 μmol/L) was added in a total volume of 500 μL, with lucigenin (5 μmol/L) and was injected automatically. Activity was determined by measuring luminescence over 200 s in a scintillation counter (Lumat LB 9507, Berthold, Germany). Basal values of NADPH oxidase activity were subtracted from the experimental values and expressed as RLU/min/μg protein […]
In situ quantification of ROS species
Superoxide dismutase (SOD) and catalase (CAT) activity assays, and in situ detection of vascular ROS content. The activity of the enzymes, SOD and CAT, was determined in cell homogenates using assay kits according to the manufacturer's instructions (Cayman; Cat No 706002 and 707002 respectively). A unit of SOD was defined as the amount of enzyme […]
Similarly, a unit of CAT was […]
defined as the amount required to form 1.0 nmol of formaldehyde per min at 25 °C.S5

hERG = target: T1, hERG (Homo sapiens, UniProt Q12809); assay: hERG automated patch clamp (IonWorks, CHO-hERG cells); format: cell-based; details: CHO cells stably transfected with hERG, top concentration 25 µM
T1 construct: host or cells: CHO cells stably transfected with hERG
T1 sequence (Q12809 whole entry): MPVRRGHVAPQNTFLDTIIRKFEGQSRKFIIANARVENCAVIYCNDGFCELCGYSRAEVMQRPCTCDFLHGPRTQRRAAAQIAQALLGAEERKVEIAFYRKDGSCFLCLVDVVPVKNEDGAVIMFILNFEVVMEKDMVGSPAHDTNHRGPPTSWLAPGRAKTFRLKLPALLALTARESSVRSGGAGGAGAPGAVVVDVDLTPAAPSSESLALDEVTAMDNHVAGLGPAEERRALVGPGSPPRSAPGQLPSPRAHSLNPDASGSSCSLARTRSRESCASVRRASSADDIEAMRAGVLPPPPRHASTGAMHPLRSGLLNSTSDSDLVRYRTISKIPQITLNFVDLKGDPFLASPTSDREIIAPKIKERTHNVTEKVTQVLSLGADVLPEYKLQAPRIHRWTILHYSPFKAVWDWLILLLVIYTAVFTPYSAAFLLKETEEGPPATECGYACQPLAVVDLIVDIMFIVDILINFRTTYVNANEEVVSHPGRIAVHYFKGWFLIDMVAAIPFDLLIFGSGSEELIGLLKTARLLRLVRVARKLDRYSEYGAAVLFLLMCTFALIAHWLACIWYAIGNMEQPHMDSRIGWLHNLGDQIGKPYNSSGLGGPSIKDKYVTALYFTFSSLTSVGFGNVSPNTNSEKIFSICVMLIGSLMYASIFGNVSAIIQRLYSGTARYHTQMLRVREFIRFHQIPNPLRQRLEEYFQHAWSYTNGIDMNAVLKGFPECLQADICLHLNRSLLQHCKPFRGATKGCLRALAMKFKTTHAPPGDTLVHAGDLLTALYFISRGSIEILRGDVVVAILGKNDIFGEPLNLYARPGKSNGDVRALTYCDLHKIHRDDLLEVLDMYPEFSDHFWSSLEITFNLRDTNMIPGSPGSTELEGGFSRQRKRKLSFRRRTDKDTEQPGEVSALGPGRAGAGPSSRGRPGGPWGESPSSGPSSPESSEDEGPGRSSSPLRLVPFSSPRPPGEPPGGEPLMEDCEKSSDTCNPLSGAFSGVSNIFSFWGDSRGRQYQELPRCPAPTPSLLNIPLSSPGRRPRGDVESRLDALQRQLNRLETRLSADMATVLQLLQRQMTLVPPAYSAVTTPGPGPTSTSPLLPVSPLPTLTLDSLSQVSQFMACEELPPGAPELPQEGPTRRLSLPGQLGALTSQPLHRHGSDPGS
Procedure: Physicochemical and ADMET properties of representative glycomimetics. […] The final incubation volume is 50 µL. […] Two control compounds are included with each species. All incubations are performed singularly for each test compound. […] The control (minus NADPH) is incubated for 45 min. […] The cells are then positioned over a small hole at the bottom of each well by applying a vacuum beneath the plate to form an electrical seal. The vacuum is applied through a single compartment common to all wells which is filled with intracellular solution (buffered to pH 7.2 with HEPES). The resistance of each seal is measured via a common ground-electrode in the intracellular compartment and individual electrodes placed into each of the upper wells. Electrical access to the cell is then achieved by circulating a perforating agent, amphotericin B, underneath the PatchPlateTM. The pre-compound hERG current is then measured. An electrode is positioned in the extracellular compartment and a holding potential of -80 mV applied for 15 s. The hERG channels are then activated by applying a depolarising step to +40 mV for 5 s and then clamped at -50 mV for 4 s to elicit the hERG tail current, before returning to -80 mV for 0.3 s. […]

Compound: O=C([O-])c1cc(OC[C@H](COS(=O)(=O)[O-])OS(=O)(=O)[O-])ccc1OCC(COS(=O)(=O)[O-])OS(=O)(=O)[O-].[Na+].[Na+].[Na+].[Na+].[Na+] (mixture of isomers) [β-5, sodium 5-((R)-2,3-bis(sulfonatooxy)propoxy)-2-(2,3-bis(sulfonatooxy)propoxy)benzoate]
- NADPH oxidase activity (NADPH oxidase): −31%
- IC50 (hERG): > 25 µM

Compound: COC(=O)c1cc(OC[C@@H](COS(=O)(=O)[O-])OS(=O)(=O)[O-])ccc1OCC(COS(=O)(=O)[O-])OS(=O)(=O)[O-].[Na+].[Na+].[Na+].[Na+] (mixture of isomers) [α-4, sodium 3-(4-((S)-2,3-bis(sulfonatooxy)propoxy)-2-(methoxycarbonyl)phenoxy)propane-1,2-diyl bis(sulfate)]
- NADPH oxidase activity (NADPH oxidase): −29%

Compound: COC(=O)c1cc(OC[C@@H](COS(=O)(=O)[O-])OS(=O)(=O)[O-])ccc1OCCCCOS(=O)(=O)[O-].[Na+].[Na+].[Na+] [Compound S-10, sodium (S)-3-(3-(methoxycarbonyl)-4-(4-(sulfonatooxy)butoxy)phenoxy)propane-1,2-diyl bis(sulfate)]
- NADPH oxidase activity (NADPH oxidase): −27%

Compound: COC(=O)c1cc(OC[C@H](COS(=O)(=O)[O-])OS(=O)(=O)[O-])ccc1OCCCCOS(=O)(=O)[O-].[Na+].[Na+].[Na+] [Compound R-10, sodium (R)-3-(3-(methoxycarbonyl)-4-(4-(sulfonatooxy)butoxy)phenoxy)propane-1,2-diyl bis(sulfate)]
- NADPH oxidase activity (NADPH oxidase): −31%
- IC50 at 300 s (hERG; human, pH 7.2): > 25 µM
